From patent US20160287524A1, “PHARMACEUTICAL COMPOSITIONS COMPRISING AN ACTIVE AGENT” (GALENICUM HEALTH S.L., priority 2013, published 2016)

Test: Dissolving the active agent in the capsule fill (glycerol monocaprylocaprate, BHT)
Type: physicochemical
Conditions: 20-23° C., stirred
Source text: Another advantage of the process as herein disclosed is that it is highly reproducible and robust independently of the water content of the active agent. […] However, when the active agent has a water content higher than 0.05% measured by Karl Fischer titration, the components of the fill are completely dissolved at the same range of temperatures. Furthermore, the inventors have been able to establish an optimum range of working temperatures able to obtain a fill solution completely dissolved homogeneously with active agents with a water content higher than 0.05% w/w.
• Glycerol monocaprylocaprate was added to a stainless steel tank equipped with cooling jacket to keep it at a temperature of 20-23° C. It was stirred until completely dissolved. • Butylhydroxytoluene (BHT) was added to the tank and stirred until completely dissolved. • Finally dutasteride anhydrous was added to the tank. • The resulting solution was kept at a range of temperature of 20-23° C. […] Water content of the active agent and the range of temperatures were studied to avoid dissolution problems.

With `C[C@]12C=CC(=O)N[C@@H]1CC[C@@H]1[C@@H]2CC[C@]2(C)[C@@H](C(=O)Nc3cc(C(F)(F)F)ccc3C(F)(F)F)CC[C@@H]12` [dutasteride anhydrous] the “dissolution of active agent in the fill solution” value was “not possible to obtain a completely dissolved solution”.
